The numbers were not newly measured in patent publication US11202772B2, “Duloxetine sprinkles” (priority 2016, dated 2021), which cites them from elsewhere.

For the molecule `CNCCC(Oc1cccc2ccccc12)c1cccs1` (single isomer, unassigned; (+)) [Duloxetine, (+)-N-methyl-3-(1-naphthalenyloxy)-3-(2-thienyl)propan-1-amine], the “drug in the dosage hydrolyzed to 1-naphthol” value (pH 1.0) was 50%. Besides, for the setting “pH of 2.0, in one hour”, the “drug degrades to 1-naphthol” value is on record as 10%. Also, the “time for 10% degradation” value (pH of 4.0) is listed as “up to 63 hours”.
